Assay results published in PMC10141580, “Cyclic Dichalcogenides Extend the Reach of Bioreductive Prodrugs to Harness Thiol/Disulfide Oxidoreductases: Applications to seco-Duocarmycins Targeting the Thioredoxin System” (ACS Central Science, 2023).
Like-named read-outs stand apart in the source and are kept apart here.

System: panel of 140 standard cancer cell lines
Experiment: ProliFiler-140 cancer cell line screen (CellTiterGlo, 72 h)
Type: cell-based
Method: Incubations were performed for 72 h before automated viability readout with CellTiterGlo (Figure 8).
End of Figure S11 (part 5 of 5): ProliFiler-140 cancer cell line screening for cytotoxicity of the prodrugs.
8-data-point dose response curves from CellTiter-Glo® viability readout.
ProliFiler-140 cell line panel part V

## COc1cc2cc(C(=O)N3C[C@@H](CCl)c4c3cc(OC(=O)N3CCN(C(=O)CCC(=O)N5CCN(C)CC5)[C@H]5CSSC[C@H]53)c3ccccc43)[nH]c2c(OC)c1OC [P-SS66C-CBI-TMI]
read-out: IC50 [M] (ProliFiler-140), BxPC-3 (Pancreas)
  IC50: 4.6e-08 M
read-out: IC50 [M] (ProliFiler-140), COR-L279 (Lung)
  IC50: 7.23e-09 M
read-out: IC50 [M] (ProliFiler-140), COV434 (Ovary)
  IC50: 1.48e-08 M
read-out: IC50 [M] (ProliFiler-140), Calu-6 (Lung)
  IC50: 5.9e-08 M
read-out: IC50 [M] (ProliFiler-140), Colo 205 (Colon)
  IC50: 8.61e-08 M
read-out: IC50 [M] (ProliFiler-140), DU-145 (Prostate)
  IC50: 1.62e-08 M
read-out: IC50 [M] (ProliFiler-140), EFM-19 (Breast)
  IC50: 3.12e-07 M
read-out: IC50 [M] (ProliFiler-140), EFO-27 (Ovary)
  IC50: 6.19e-08 M
read-out: IC50 [M] (ProliFiler-140), EPLC-272H (Lung)
  IC50: 4.6e-08 M
read-out: IC50 [M] (ProliFiler-140), H460 (Lung)
  IC50: 5.51e-09 M
read-out: IC50 [M] (ProliFiler-140), H1299 (Lung)
  IC50: 5.4e-08 M
read-out: IC50 [M] (ProliFiler-140), H2228 (Lung)
  IC50: 4.5e-08 M
read-out: IC50 [M] (ProliFiler-140), HCC202 (Breast)
  IC50: 9.13e-08 M
read-out: IC50 [M] (ProliFiler-140), HCC827 (Lung)
  IC50: 9.11e-08 M
read-out: IC50 [M] (ProliFiler-140), HEC-1-B (Endometrium)
  IC50: 3.99e-07 M
read-out: IC50 [M] (ProliFiler-140), HL-60 (Blood)
  IC50: 1.52e-08 M
read-out: IC50 [M] (ProliFiler-140), HT-29 (Colon)
  IC50: 1.05e-07 M
read-out: IC50 [M] (ProliFiler-140), HT-1080 (Fibrosarcoma)
  IC50: 2.1e-08 M
read-out: IC50 [M] (ProliFiler-140), HeLa (Ovary)
  IC50: 9.9e-09 M
read-out: IC50 [M] (ProliFiler-140), Hep3B2.1-7 (Liver)
  IC50: 1.72e-07 M
read-out: IC50 [M] (ProliFiler-140), Hs 746T (Stomach)
  IC50: 7.52e-08 M
read-out: IC50 [M] (ProliFiler-140), Hutu 80 (Duodenum)
  IC50: 9.6e-09 M
read-out: IC50 [M] (ProliFiler-140), Ishikawa (Endometrium)
  IC50: 3.84e-09 M
read-out: IC50 [M] (ProliFiler-140), J82 (Bladder)
  IC50: 9.6e-08 M
read-out: IC50 [M] (ProliFiler-140), JIMT-1 (Breast)
  IC50: 1.04e-07 M
read-out: IC50 [M] (ProliFiler-140), JVM-3 (Blood)
  IC50: 3.4e-09 M
read-out: IC50 [M] (ProliFiler-140), Jurkat (Blood)
  IC50: 6.2e-09 M
read-out: IC50 [M] (ProliFiler-140), K562 (Blood)
  IC50: 1.29e-07 M
read-out: IC50 [M] (ProliFiler-140), KG-1 (Blood)
  IC50: 1.9e-07 M
read-out: IC50 [M] (ProliFiler-140), LOU-NH91 (Lung)
  IC50: 3.45e-08 M
read-out: IC50 [M] (ProliFiler-140), LP-1 (Blood)
  IC50: 1.04e-07 M
read-out: IC50 [M] (ProliFiler-140), LnCap (Prostate)
  IC50: 2.75e-08 M
read-out: IC50 [M] (ProliFiler-140), MCF-7 (Breast)
  IC50: 3.05e-08 M
read-out: IC50 [M] (ProliFiler-140), MDA-MB-468 (Breast)
  IC50: 1.87e-08 M
read-out: IC50 [M] (ProliFiler-140), MEC-1 (Blood)
  IC50: 1.08e-08 M
read-out: IC50 [M] (ProliFiler-140), MKN-1 (Stomach)
  IC50: 1.38e-07 M
read-out: IC50 [M] (ProliFiler-140), MOLM-13 (Blood)
  IC50: 5.25e-09 M
read-out: IC50 [M] (ProliFiler-140), MOLT-4 (Blood)
  IC50: 8.62e-09 M
read-out: IC50 [M] (ProliFiler-140), MV4-11 (Blood)
  IC50: 1.54e-09 M
read-out: IC50 [M] (ProliFiler-140), NALM-6 (Blood)
  IC50: 2.5e-09 M
read-out: IC50 [M] (ProliFiler-140), NCI-H82 (Lung)
  IC50: 8.78e-08 M
read-out: IC50 [M] (ProliFiler-140), NCI-H292 (Lung)
  IC50: 3.77e-08 M
read-out: IC50 [M] (ProliFiler-140), NCI-H838 (Lung)
  IC50: 7.44e-08 M
read-out: IC50 [M] (ProliFiler-140), NCI-H1048 (Lung)
  IC50: 3.97e-09 M
read-out: IC50 [M] (ProliFiler-140), NCI-H1563 (Lung)
  IC50: 1.14e-07 M
read-out: IC50 [M] (ProliFiler-140), NCI-H1573 (Lung)
  IC50: 8.97e-08 M
read-out: IC50 [M] (ProliFiler-140), NCI-H1581 (Lung)
  IC50: 4.7e-08 M
read-out: IC50 [M] (ProliFiler-140), NCI-H1703 (Lung)
  IC50: 5.11e-08 M
read-out: IC50 [M] (ProliFiler-140), NCI-H2110 (Lung)
  IC50: 1.81e-08 M
read-out: IC50 [M] (ProliFiler-140), NCI-H2286 (Lung)
  IC50: 1.67e-08 M
read-out: IC50 [M] (ProliFiler-140), NCI-N87 (Stomach)
  IC50: 7.55e-08 M
read-out: IC50 [M] (ProliFiler-140), OCI-AML3 (Blood)
  IC50: 1.32e-08 M
read-out: IC50 [M] (ProliFiler-140), OCI-AML5 (Blood)
  IC50: 5.98e-09 M
read-out: IC50 [M] (ProliFiler-140), OCI-LY19 (Blood)
  IC50: 2.8e-09 M
read-out: IC50 [M] (ProliFiler-140), OPM-2 (Blood)
  IC50: 2.6e-08 M
read-out: IC50 [M] (ProliFiler-140), OV56 (Ovary)
  IC50: 7.2e-08 M
read-out: IC50 [M] (ProliFiler-140), OVCAR-3 (Ovary)
  IC50: 7.88e-08 M
read-out: IC50 [M] (ProliFiler-140), OVK18 (Ovary)
  IC50: 4.6e-08 M
read-out: IC50 [M] (ProliFiler-140), P31/FUJ (Blood)
  IC50: 2.25e-08 M
read-out: IC50 [M] (ProliFiler-140), PC3 (Prostate)
  IC50: 4e-08 M
read-out: IC50 [M] (ProliFiler-140), PC-9 (Lung)
  IC50: 1.41e-08 M
read-out: IC50 [M] (ProliFiler-140), RERF-LC-Ad2 (Lung)
  IC50: 1.42e-07 M
read-out: IC50 [M] (ProliFiler-140), RKO (Colon)
  IC50: 2.1e-08 M
read-out: IC50 [M] (ProliFiler-140), SCH (Stomach)
  IC50: 1.52e-08 M
read-out: IC50 [M] (ProliFiler-140), SCLC-21H (Lung)
  IC50: 2.6e-08 M
read-out: IC50 [M] (ProliFiler-140), SK-ES-1 (Bone)
  IC50: 2.7e-09 M
read-out: IC50 [M] (ProliFiler-140), SK-MEL-3 (Skin)
  IC50: 1.55e-07 M
read-out: IC50 [M] (ProliFiler-140), SK-N-MC (Brain)
  IC50: 1.61e-09 M
read-out: IC50 [M] (ProliFiler-140), SK-N-SH (Brain)
  IC50: 1.15e-07 M
read-out: IC50 [M] (ProliFiler-140), SK-OV3 (Ovary)
  IC50: 3.7e-08 M
read-out: IC50 [M] (ProliFiler-140), SNU-1 (Stomach)
  IC50: 2.27e-08 M
read-out: IC50 [M] (ProliFiler-140), SNU-216 (Stomach)
  IC50: 9.2e-08 M
read-out: IC50 [M] (ProliFiler-140), SU-DHL-5 (Blood)
  IC50: 2.55e-09 M
read-out: IC50 [M] (ProliFiler-140), SW480 (Colon)
  IC50: 5.5e-08 M
read-out: IC50 [M] (ProliFiler-140), SW-1783 (Brain)
  IC50: 4.8e-08 M
read-out: IC50 [M] (ProliFiler-140), Saos-2 EC (Bone)
  IC50: 6.6e-08 M
read-out: IC50 [M] (ProliFiler-140), T98G (Brain)
  IC50: 8.1e-08 M
read-out: IC50 [M] (ProliFiler-140), T-47D (Breast)
  IC50: 9.75e-08 M
read-out: IC50 [M] (ProliFiler-140), U118MG (Brain)
  IC50: 1.9e-07 M
read-out: IC50 [M] (ProliFiler-140), U251MG (Brain)
  IC50: 1.18e-07 M
read-out: IC50 [M] (ProliFiler-140), U-266 (Blood)
  IC50: 9.4e-09 M
read-out: antiproliferative IC50 range, range over 140 cell lines
  IC50: 1e-09 to 1e-07 M
Span over ProliFiler-140 cell lines
  Reductive Activation Index: up to 30 fold
